Test results as given in patent US20240066006A1, “Antiviral Compounds and Applications Thereof” (priority 2020, published 2024).
Where two headings read alike, the source gives them in different places.

Key:
MHV-1 [1] = assay: Viral titer by plaque assay, DBT cells infected with MHV-1; type: cell-based, murine hepatitis virus
MHV-1 [2] = assay: Syncytium formation in DBT cells infected with MHV-1 (microscopy images); type: cell-based, murine hepatitis virus; settings: for inhibitory effect on syncytium formation and cell-cell fusion / inhibitory effect on syncytium formation and fusion: DBT cells pre-treated three hours, 893 10 μM, images at 48 hours; for inhibitory effect on syncytium formation and cell-cell fusion: NAV2729 5 μM, SecinH3 30 μM; for inhibitory effect on syncytium formation and fusion: YM201636 400 nM, apilimod 50 nM; for syncytium formation induced by MHV-1: DBT cells, 4 μM
MHV-A59 [3] = type: cell-based, murine hepatitis virus; settings: DBT cells, MOI 0.1, plaque assay at 24 or 48 hours
MHV-A59 [4] = assay: Syncytium formation in DBT cells infected with MHV-A59 (phase contrast microscopy); type: cell-based, murine hepatitis virus; settings: 4 μM, MOI 0.1, 24 hours post infection
Procedure: To determine whether PP2A activation mitigates syncytium formation induced by coronaviruses, DBT cells were treated with 4 μM of compound 893 before or after infection with MHV-A59 at a multiplicity of infection (MOI) of 0.1 and then assessed for syncytium formation via phase contrast microscopy 24 hours post infection.

ACE2 receptor = type: cell-based; settings: pre-treated VeroE6 cells
Serum protein binding = type: in vitro ADME
[5] = tested on: endolysosomal trafficking; assay: Inhibition of endolysosomal trafficking in vitro; type: cell-based
[6] = in vivo
in vivo = settings: po
[7] = Pharmacokinetics and tissue levels upon oral administration
MHV-1 [8] = assay: MHV-1 intranasal infection of male A/J mice, lung viral titer and lung weight; settings: 120 mg/kg by gavage 6 hours prior to and 18 hours after infection, 500 pfu MHV-1 intranasally, 24 hours post-infection
[9] = DBT cells pre-treated three hours, 893 10 μM, NAV2729 5 μM, SecinH3 30 μM, plaque assay 48 hours post infection
[10] = after viral infection (post-treatment)

## OCCN1CCN(CCCN2c3ccccc3Sc3ccc(Cl)cc32)CC1 [PPZ, perphenazine, reference compound]
MHV-1 [1]; DBT cells, pretreatment with PP2A agonist
  reduction of viral titers of MHV-1: to a degree similar to that of compound 893
MHV-1 [2]; DBT cells infected with MHV-1, pretreatment with PP2A agonist
  syncytium formation and fusion: as efficiently as compound 893

## COc1nc(-c2ccc3c(c2)OCO3)n(-c2ccc(NC(=O)CSc3ccccc3)cc2)n1 [SecinH3, reference compound]
MHV-1 [1]; [9]
  reduction of viral titers of MHV-1: about 1 log
MHV-1 [2]
  inhibitory effect on syncytium formation and cell-cell fusion: inhibitory effect

## Nc1ccc(C(=O)Nc2cccc(-c3nc(N4CCOCC4)c4oc5ncccc5c4n3)c2)cn1 [YM201636]
MHV-1 [2]
  inhibitory effect on syncytium formation and fusion: inhibitory effect

## Cc1cccc(/C=N/Nc2cc(N3CCOCC3)nc(OCCc3ccccn3)n2)c1 [apilimod]
MHV-1 [2]
  inhibitory effect on syncytium formation and fusion: inhibitory effect

## CCCCCCCCc1ccc([C@H]2CCN[C@@H]2CO)cc1.Cl [compound 893]
MHV-1 [1]; [9]
  reduction of viral titers of MHV-1: ~3 log
MHV-1 [1]; DBT cells pre-treated three hours, 893 10 μM, YM201636 400 nM, apilimod 50 nM, plaque assay 48 hours post infection
  reduction of viral titers of MHV-1: ~3 logs
MHV-1 [1]; DBT cells, 4-5 μM added one hour after infection, MOI 0.1, plaque assay at 24 or 48 hours
  reduction of viral titers of MHV-1: 3-4 logs
MHV-1 [1]; DBT cells, 4-5 μM for three hours prior to infection, MOI 0.1, washed 1 hour after infection, plaque assay at 24 or 48 hours
  reduction of viral titers of MHV-1: 3-4 logs
MHV-A59 [3]; 4-5 μM added one hour after infection
  reduction of viral titers of MHV-A59: 3-4 logs
MHV-A59 [3]; 4-5 μM for three hours prior to infection, washed 1 hour after infection
  reduction of viral titers of MHV-A59: 3-4 logs
MHV-A59 [4]; [10]
  syncytium formation induced by MHV-A59: potently prevented syncytium formation
MHV-A59 [4]; pre-treatment
  syncytium formation induced by MHV-A59: potently prevented syncytium formation
MHV-1 [2]
  inhibitory effect on syncytium formation and cell-cell fusion: inhibitory effect
  inhibitory effect on syncytium formation and fusion: greater for 893 than for YM201636 or apilimod
MHV-1 [2]; [10]
  syncytium formation induced by MHV-1: potently prevented syncytium formation
MHV-1 [2]; pre-treatment
  syncytium formation induced by MHV-1: potently prevented syncytium formation
ACE2 receptor
  ACE2 receptor localization at the outer cell membrane: reduction of ACE2 receptor localization at the outer cell membrane
Resistance to metabolism
  resistance to metabolism: resistant to metabolism
Serum protein binding
  binding by serum proteins: highly bound by serum proteins
[5]
  concentration required to inhibit endolysosomal trafficking: 1 to 10 µM
[6]
  oral bioavailability: orally bioavailable
In vivo
  half-life: 10.6 h
[7]; compared with 1-10 μM required in vitro
  total drug levels in the lungs relative to concentration required in vitro: 300 fold
[7]; lungs, brain, liver (many tissues), po, 120 mg/kg
  concentration at 5 days: > 100 µM
MHV-1 [8]
  lung weight: reduced lung weight
  reduction in infectious virus within the lungs: 2 log

## NAV2729 [reference compound]
MHV-1 [1]; [9]
  reduction of viral titers of MHV-1: about 1 log
MHV-1 [2]
  inhibitory effect on syncytium formation and cell-cell fusion: inhibitory effect
